From US7273925B1, “Methods and products for regulating lectin complement pathway associated complement activation” (Brigham and Women's Hospital, Inc., priority 1998, dated 2007)

Legend:
[1] = test system: HUVECs; assay: Microphysiometry of HUVEC extracellular acidification rate (EAR); assay type: cell-based, human; details: normoxic or hypoxic/reoxygenated HUVECs; MBL 300-1500 ng/ml, 40 min perfusion; histamine 1 μmol/L
Description: Microphysiometry. Changes in HUVEC extracellular acidification rate (EAR) were evaluated by use of a Cytosensor microphysiometer (Molecular Devices, Sunnyvale, Calif.). HUVECs were grown to 75% confluence on gelatin-coated (1%) transwell capsules and subjected to 24 hr of hypoxia followed by 3 hr of reoxygenation. Following 30 min of equilibration in modified RPMI containing 1 mmol/L phosphate buffer (Molecular Devices, Sunnyvale, Calif.), the EARs were determined (Gronert K, et al., “Characterization of human neutrophil and endothelial cell ligand-operated extacellular acidification rate by microphysiometry: Impact of reoxygenation”, J. Pharmacol.Exp.Ther. 1998;285:252-261). HUVECs were perfused with 300-1500 ng/ml of purified MBL (dialyzed in the modified RPMI) for 30 sec before the first rate measurement and perfusion was maintained for 40 min. As a positive control, the HUVECs were perfused with media alone for 15 min following MBL exposure and then stimulated with histamine (1 μmol/L, 15 min perfusion) to evoke extracellular acidification. Each concentration of MBL was analyzed in two independent chambers containing normoxic or hypoxic/reoxygenated HUVECs. The HUVEC response to each MBL concentration was evaluated in 3 separate experiments (n=3).

[2] = target: T1, MBL (Homo sapiens, UniProt P11226); assay: iC3b (C3) deposition cell surface ELISA on hypoxic/reoxygenated HUVECs; assay type: cell-based; details: for attenuation of iC3b deposition: HUVECs 24 hr hypoxia, 3 hr reoxygenation; for iC3b deposition compared with normoxic HUVECs (FIG. 4a): 30 mmol/L in 30% human serum; for inhibition of iC3b deposition on hypoxic/reoxygenated HUVECs (in words): sugar at 3-300 mmol/L in 30% HS
T1 construct: 3 hr of reoxygenation in the presence of 30% human serum (HS); from tissue; host or cells: human serum (30% HS on HUVECs; 2% human sera on mannan-coated plates)
T1 sequence (P11226 21-248): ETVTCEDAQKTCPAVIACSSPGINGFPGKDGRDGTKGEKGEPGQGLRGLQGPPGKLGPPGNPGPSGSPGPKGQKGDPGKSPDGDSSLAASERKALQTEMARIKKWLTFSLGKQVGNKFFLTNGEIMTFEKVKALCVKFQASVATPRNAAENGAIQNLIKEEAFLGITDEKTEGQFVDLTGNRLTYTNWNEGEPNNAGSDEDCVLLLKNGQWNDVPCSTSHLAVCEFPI
Description: Enzyme-Linked Immunoabsorbent Assay (ELISA) Experiments. […] HUVECs were grown to confluence on 0.1% gelatinized 96-well plastic plates (Corning Costar, Cambridge, Mass.). The plates were then subjected to 0 (normoxia) or 24 hr of hypoxia. Hypoxic stress was maintained using a humidified sealed chamber (Coy Laboratory Products, Inc., Grass Lake, Mich.) at 37° C. gassed with 1% O2, 5% CO2, balance N2 (Collard C D, et al., “Reoxygenation of hypoxic human umbilical vein endothelial cells activates the classical complement pathway”, Circulation 1997;96:326-333). Following the specified period of normoxia or hypoxia, the cell media were aspirated and 100 μl of one of the following was added to each well: 1) 30% HS, 2) Hank's balanced salt solution, 3) 30% HS+3, 30, or 300 mmol/L GluNAc, 4) 30% HS+3, 30, or 300 mmol/L D-mannose, 5) 30% HS+3, 30, 300 mmol/L L-mannose, 6) 30% MBL-depleted HS+3F8 (0, 20, 50 μg/ml)or 7) 30% MBL-depleted HS +0.6 μg/ml MBL. Additionally, 100 μl of purified MBL (3-300 ng/ml) was added to select wells to form a standard curve for quantitative analysis of MBL deposition. The cells were then reoxygenated for 3 hr at 37° C. in 95% air and 5% CO2. The cells were washed and then fixed with 1% paraformaldehyde (Sigma Chemical Co., St. Louis, Mo.) for 30 min. The cells were then washed and incubated at 4° C. for 1.5 hr with 50 μl of peroxidase-conjugated polyclonal goat anti-human C3 antibody (1:1000 dilution) or monoclonal anti-human MBL antibody (1:1000 dilution). The MBL ELISA plates were then washed and incubated for 1 hr at 4° C. with 50 μl of peroxidase-conjugated polyclonal goat anti-mouse IgG secondary antibody (1:1000 dilution). After washing the cells, the plates were developed with […] of ABTS (2,2′-azino-bis(3-ethylbenzthiazoline-6-sulfonic acid)), and read (Molecular Devices, Sunnyvale, Calif.) at 405 nm. Background controls for the C3 ELISA consisted of cells to which only the anti-human C3 antibody was added (i.e., no […]) or cells incubated with 30% heat-inactivated HS. Background controls for the MBL ELISA consisted of cells to which only secondary antibody and an isotype control monoclonal antibody to porcine C5a were added. Background optical density was subtracted from all groups. All ELISA experiments were performed 3 times using 6 wells per experimental group. Endothelial C3 and MBL deposition on normoxic vs. hypoxic […] was analyzed by two-way analysis of variance (ANOVA).
HUVEC cell culture and quantitation of iC3b deposition by ELISA were performed as outlined in Example 2.
Results. HUVECs were subjected to 0 or 24 hr of hypoxia followed by 3 hr of reoxygenation in the presence of 30% HS or 30% HS treated with 3, 30, or 300 mmol/L GluNAc, D-mannose or L-mannose in order to inhibit MBL deposition, LCP activation and iC3b deposition.
HUBECs were hypoxic for 24 hours and then reoxygenated in 30% human sera. iC3b deposition was then normalized to normoxic cells.

[3] = target: T1, MBL; assay: MBL deposition cell surface ELISA on hypoxic/reoxygenated HUVECs; assay type: cell-based; details: for attenuation of MBL deposition: HUVECs 24 hr hypoxia, 3 hr reoxygenation
Description: C3 and MBL specific cell surface ELISAs can be performed using peroxidase-conjugated polyclonal goat anti-human C3 antibody (Cappel, West Chester, Pa.) and monoclonal anti-human MBL antibody (Biodesign, Kennebunk, Me., clone #131-1), respectively. HUVECs are grown to confluence on 0.1% gelatinized 96-well plastic plates (Corning Costar, Cambridge, Mass.). The plates are then subjected to 0 (normoxia) or 24 hr of hypoxia. Hypoxic stress is maintained using a humidified sealed chamber (Coy Laboratory Products, Inc., Grass Lake, Mich.) at 37° C. gassed with 1% O2, 5% CO2, balance N2 (Collard C D, et al., “Reoxygenation of hypoxic human umbilical vein endothelial cells activates the classical complement pathway”, Circulation, 1997;96:326-333). Following the specified period of normoxia or hypoxia, the cell media are aspirated and 100 μl of one the following is added to each well: 1) 30% HS, 2) Hank's balanced salt solution, 3) 30% HS +3, 30, or 300 mmol/L GluNAc, 4) 30% HS+3, 30, or 300 mmol/L D-mannose, 5) 30% HS+3, 30, 300 mmol/L L-mannose, 6) 30% MBL-depleted HS 7) 30% MBL-depleted HS+0.6 μg/ml MBL or 8) 30% HS+3, 30, or 300 mmol/L putative MBL binding peptide. Additionally, 100 μl of purified MBL (3-300 ng/ml) is added to select wells to form a standard curve for quantitative analysis of MBL deposition. The cells are then reoxygenated for 3 hr at 37° C. in 95% air and 5% CO2. The cells are washed and then fixed with 1% paraformaldehyde (Sigma Chemical Co., St. Louis, Mo.) for 30 min. The cells are then washed and incubated at 4° C. for 1.5 hr with 50 μl of peroxidase-conjugated polyclonal goat anti-human C3 antibody (1:1000 dilution) or monoclonal anti-human MBL antibody (1:1000 dilution). The MBL ELISA plates are then washed and incubated for 1 hr at 4° C. with 50 μl of peroxidase-conjugated polyclonal goat anti-mouse IgG secondary antibody (1:1000 dilution). After washing the cells, the plates are developed with 50 μl of ABTS (2,2′-azino-bis(3-ethylbenzthiazoline-6-sulfonic acid)), and read (Molecular Devices, Sunnyvale, Calif.) at 405 nm. Background controls for the C3 ELISA consist of cells to which only the anti-human C3 antibody is added (i.e., no HS) or cells incubated with 30% heat-inactivated HS. Background controls for the MBL ELISA consist of cells to which only secondary antibody and an isotype control monoclonal antibody to porcine C5a are added. Background optical density is subtracted from all groups. ELISA experiments are generally performed 3 times using 6 wells per experimental group. Endothelial C3 and MBL deposition on normoxic vs. hypoxic HUVECs is analyzed by two-way analysis of variance (ANOVA).
Enzyme-Linked Immunoabsorbent Assay (ELISA) Experiments. […]

[4] = target: T1, MBL; assay: Functional screen: C3 deposition on mannan-coated plates in 2% human sera; assay type: biochemical
Description: Methods. The functional screen for inhibition of MBL function by anti-human MBL antibodies was adapted from the literature{Super, Levinsky, et al., The level of mannan-binding protein regulates the binding of complement-derived opsonins to mannanand zymosan at low serum concentrations, Clin. Exp. Immunol. 1990; 79:144-150}. Briefly, 100 μl of mcannan (0.5 mg/ml in sodium carbonate/bicarbonate buffer, pH 9.6) was added to RIA/EIA plates at 4C overnight. The plates were then washed 3 times in PBS/0.5% Tween pH 7.3, once in PBS and finally in veronal-buffered saline. Human serum is diluted to 4% in VBS containing 5 mM Ca^2+ and Mg^2+. Diluted sera and tissue culture supernatant or purified antibody (various concentrations) are then 1:1 to a mannan-coated well to yield a final volume or 100 μl at a concentration of 2% human sera. The plate is then incubated at 37C for 30 min. Positive and negative controls consist of human sera without and with 100 mM N-acetlglucosamine (GluNac). The plates are then washed four times in PBS/Tween. The plates are then incubated with an anti-human C3 polyclonal antibody coupled with HRP (1 hours at RT), washed and developed with ABTS and read at 405 nm.

MBL: mannan-(or mannose) binding lectin purified from human plasma
change in extracellular acidification rate (EAR) [1]: did not evoke receptor-mediated changes in the EAR

O=C[C@@H](O)[C@@H](O)[C@H](O)[C@H](O)CO [D-mannose]
attenuation of iC3b deposition ([2]; 3 mmol/L in 30% HS): 19±2%
attenuation of iC3b deposition ([2]; 30 mmol/L in 30% HS): 52±3%
iC3b deposition compared with normoxic HUVECs (FIG. 4a) [2]: did not significantly differ from normoxic controls
attenuation of iC3b deposition ([2]; 300 mmol/L in 30% HS): 96±2%
inhibition of iC3b deposition on hypoxic/reoxygenated HUVECs (in words) [2]: significantly attenuated

O=C[C@H](O)[C@H](O)[C@@H](O)[C@@H](O)CO [L-mannose]
iC3b deposition compared with normoxic HUVECs (FIG. 4a) [2]: significantly greater than normoxic HUVECs
iC3b deposition, OD405 ([2]; hypoxic HUVECs reoxygenated in 30% HS treated with the sugar, normoxic 0.05±0.01): 0.14±0.01
inhibition of iC3b deposition on hypoxic/reoxygenated HUVECs (in words) [2]: did not inhibit iC3b deposition

NCCc1c[nH]cn1 [histamine]
change in extracellular acidification rate (EAR) [1]: all cells remained responsive

CC(=O)N[C@H]1C(O)O[C@H](CO)[C@@H](O)[C@@H]1O (stereo partly drawn) [GluNAc, N-acetyl-D-glucosamine]
attenuation of MBL deposition ([3]; 3 mmol/L in 30% HS): 40±4%
attenuation of MBL deposition ([3]; 30 mmol/L in 30% HS): 71±5%
attenuation of MBL deposition ([3]; 300 mmol/L in 30% HS): 96±3%
MBL deposition on hypoxic/reoxygenated HUVECs (in words) ([3]; 3, 30, 300 mmol/L added to 30% HS, dose-dependent): significantly inhibited MBL deposition
iC3b deposition compared with normoxic HUVECs (FIG. 4a) [2]: did not significantly differ from normoxic controls
inhibition of iC3b deposition on hypoxic/reoxygenated HUVECs (in words) [2]: significantly attenuated
EC50 [4]: ~1 nM
